{"source": "patent US10781224B2", "about": "“Bis(oxymethyl)phosphinic acid and biogenic metal salts thereof as regulators of plant growth and development” (priority 2016, dated 2020)", "test_system": "corn (Krasnodar 385 MV variety)", "assay": "Corn seed treatment with BHMPA salts: germinating power", "assay_type": "in vivo", "how_it_was_run": "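Seeds (50 per Petri dish on two layers of filter paper) soaked 1 h in BHMPA or its Ca, Mg, Na, Co, Mn, Cu or Zn salts at 1·10^−6-1·10^−12%, with water controls. Germination energy read on day 4, germination on day 8 (wheat) or day 7 (rice, corn), as % means of four replicates. Germinating power taken as root and sprout length plus wet and dry mass per 100 seedlings.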", "key": {"[1]": {"conditions": "corn seeds, solution concentration 1 · 10^−6%, zinc salt of BHMPA"}, "[2]": {"conditions": "corn seeds, solution concentration 1 · 10^−7%, zinc salt of BHMPA"}, "[3]": {"conditions": "corn seeds, solution concentration 1 · 10^−8%, zinc salt of BHMPA"}, "[4]": {"conditions": "corn seeds, solution concentration 1 · 10^−9%, zinc salt of BHMPA"}, "[5]": {"conditions": "corn seeds, solution concentration 1 · 10^−10%, zinc salt of BHMPA"}, "[6]": {"conditions": "corn seeds, solution concentration 1 · 10^−11%, zinc salt of BHMPA"}, "[7]": {"conditions": "corn seeds, solution concentration 1 · 10^−12%, zinc salt of BHMPA"}}, "data": [{"smiles": "O=P([O-])(CO)CO.O=P([O-])(CO)CO.[Zn+2]", "note": "[Zn-salt, Zinc BHMPA Salt]", "values": [{"measurement": "optimum concentration for treating corn seeds before sowing", "setting": "corn", "result": "1·10^−8%"}, {"measurement": "Length, root", "setting": "[1]", "result": 5.3, "unit": "cm"}, {"measurement": "Length, root, + % to control", "setting": "[1]", "result": 13, "unit": "%"}, {"measurement": "Length, sprout", "setting": "[1]", "result": 3.4, "unit": "cm"}, {"measurement": "Length, sprout, + % to control", "setting": "[1]", "result": 3, "unit": "%"}, {"measurement": "Mass, dry, root", "setting": "[1]", "result": 1.17, "unit": "g/100 plantlings"}, {"measurement": "Mass, dry, root, + % to control", "setting": "[1]", "result": 12.5, "unit": "%"}, {"measurement": "Mass, dry, sprout", "setting": "[1]", "result": 0.97, "unit": "g/100 plantlings"}, {"measurement": "Mass, dry, sprout, + % to control", "setting": "[1]", "result": 13, "unit": "%"}, {"measurement": "Mass, wet, root", "setting": "[1]", "result": 6.98, "unit": "g/100 plantlings"}, {"measurement": "Mass, wet, root, + % to control", "setting": "[1]", "result": 8.5, "unit": "%"}, {"measurement": "Mass, wet, sprout", "setting": "[1]", "result": 5.99, "unit": "g/100 plantlings"}, {"measurement": "Mass, wet, sprout, + % to control", "setting": "[1]", "result": 5, "unit": "%"}, {"measurement": "Length, root", "setting": "[2]", "result": 5.6, "unit": "cm"}, {"measurement": "Length, root, + % to control", "setting": "[2]", "result": 19, "unit": "%"}, {"measurement": "Length, sprout", "setting": "[2]", "result": 3.5, "unit": "cm"}, {"measurement": "Length, sprout, + % to control", "setting": "[2]", "result": 6, "unit": "%"}, {"measurement": "Mass, dry, root", "setting": "[2]", "result": 1.30, "unit": "g/100 plantlings"}, {"measurement": "Mass, dry, root, + % to control", "setting": "[2]", "result": 25, "unit": "%"}, {"measurement": "Mass, dry, sprout", "setting": "[2]", "result": 1.10, "unit": "g/100 plantlings"}, {"measurement": "Mass, dry, sprout, + % to control", "setting": "[2]", "result": 28, "unit": "%"}, {"measurement": "Mass, wet, root", "setting": "[2]", "result": 7.46, "unit": "g/100 plantlings"}, {"measurement": "Mass, wet, root, + % to control", "setting": "[2]", "result": 16, "unit": "%"}, {"measurement": "Mass, wet, sprout", "setting": "[2]", "result": 7.03, "unit": "g/100 plantlings"}, {"measurement": "Mass, wet, sprout, + % to control", "setting": "[2]", "result": 24, "unit": "%"}, {"measurement": "Length, root", "setting": "[3]", "result": 5.9, "unit": "cm"}, {"measurement": "Length, root, + % to control", "setting": "[3]", "result": 25.5, "unit": "%"}, {"measurement": "Length, sprout", "setting": "[3]", "result": 4.0, "unit": "cm"}, {"measurement": "Mass, dry, root", "setting": "[3]", "result": 1.36, "unit": "g/100 plantlings"}, {"measurement": "Mass, dry, sprout", "setting": "[3]", "result": 1.13, "unit": "g/100 plantlings"}, {"measurement": "Mass, wet, root", "setting": "[3]", "result": 8.18, "unit": "g/100 plantlings"}, {"measurement": "Mass, wet, sprout", "setting": "[3]", "result": 7.82, "unit": "g/100 plantlings"}, {"measurement": "Length, root", "setting": "[4]", "result": 5.8, "unit": "cm"}, {"measurement": "Length, root, + % to control", "setting": "[4]", "result": 23, "unit": "%"}, {"measurement": "Length, sprout", "setting": "[4]", "result": 3.8, "unit": "cm"}, {"measurement": "Length, sprout, + % to control", "setting": "[4]", "result": 15, "unit": "%"}, {"measurement": "Mass, dry, root", "setting": "[4]", "result": 1.19, "unit": "g/100 plantlings"}, {"measurement": "Mass, dry, root, + % to control", "setting": "[4]", "result": 14, "unit": "%"}, {"measurement": "Mass, dry, sprout", "setting": "[4]", "result": 1.06, "unit": "g/100 plantlings"}, {"measurement": "Mass, dry, sprout, + % to control", "setting": "[4]", "result": 23, "unit": "%"}, {"measurement": "Mass, wet, root", "setting": "[4]", "result": 7.39, "unit": "g/100 plantlings"}, {"measurement": "Mass, wet, root, + % to control", "setting": "[4]", "result": 15, "unit": "%"}, {"measurement": "Mass, wet, sprout", "setting": "[4]", "result": 6.99, "unit": "g/100 plantlings"}, {"measurement": "Mass, wet, sprout, + % to control", "setting": "[4]", "result": 23, "unit": "%"}, {"measurement": "Length, root", "setting": "[5]", "result": 5.5, "unit": "cm"}, {"measurement": "Length, root, + % to control", "setting": "[5]", "result": 15, "unit": "%"}, {"measurement": "Length, sprout", "setting": "[5]", "result": 3.7, "unit": "cm"}, {"measurement": "Length, sprout, + % to control", "setting": "[5]", "result": 12, "unit": "%"}, {"measurement": "Mass, dry, root", "setting": "[5]", "result": 1.13, "unit": "g/100 plantlings"}, {"measurement": "Mass, dry, root, + % to control", "setting": "[5]", "result": 9, "unit": "%"}, {"measurement": "Mass, dry, sprout", "setting": "[5]", "result": 1.00, "unit": "g/100 plantlings"}, {"measurement": "Mass, dry, sprout, + % to control", "setting": "[5]", "result": 16, "unit": "%"}, {"measurement": "Mass, wet, root", "setting": "[5]", "result": 6.96, "unit": "g/100 plantlings"}, {"measurement": "Mass, wet, root, + % to control", "setting": "[5]", "result": 8, "unit": "%"}, {"measurement": "Mass, wet, sprout", "setting": "[5]", "result": 6.29, "unit": "g/100 plantlings"}, {"measurement": "Mass, wet, sprout, + % to control", "setting": "[5]", "result": 11, "unit": "%"}, {"measurement": "Length, root", "setting": "[6]", "result": 5.2, "unit": "cm"}, {"measurement": "Length, root, + % to control", "setting": "[6]", "result": 11, "unit": "%"}, {"measurement": "Length, sprout", "setting": "[6]", "result": 3.6, "unit": "cm"}, {"measurement": "Length, sprout, + % to control", "setting": "[6]", "result": 9, "unit": "%"}, {"measurement": "Mass, dry, root", "setting": "[6]", "result": 1.10, "unit": "g/100 plantlings"}, {"measurement": "Mass, dry, root, + % to control", "setting": "[6]", "result": 6, "unit": "%"}, {"measurement": "Mass, dry, sprout", "setting": "[6]", "result": 0.97, "unit": "g/100 plantlings"}, {"measurement": "Mass, dry, sprout, + % to control", "setting": "[6]", "result": 13, "unit": "%"}, {"measurement": "Mass, wet, root", "setting": "[6]", "result": 6.81, "unit": "g/100 plantlings"}, {"measurement": "Mass, wet, root, + % to control", "setting": "[6]", "result": 6, "unit": "%"}, {"measurement": "Mass, wet, sprout", "setting": "[6]", "result": 5.93, "unit": "g/100 plantlings"}, {"measurement": "Mass, wet, sprout, + % to control", "setting": "[6]", "result": 4, "unit": "%"}, {"measurement": "Length, root", "setting": "[7]", "result": 4.8, "unit": "cm"}, {"measurement": "Length, root, + % to control", "setting": "[7]", "result": 2, "unit": "%"}, {"measurement": "Length, sprout", "setting": "[7]", "result": 3.5, "unit": "cm"}, {"measurement": "Length, sprout, + % to control", "setting": "[7]", "result": 6, "unit": "%"}, {"measurement": "Mass, dry, root", "setting": "[7]", "result": 0.93, "unit": "g/100 plantlings"}, {"measurement": "Mass, dry, root, + % to control", "setting": "[7]", "result": "−10.5", "unit": "%"}, {"measurement": "Mass, dry, sprout", "setting": "[7]", "result": 0.89, "unit": "g/100 plantlings"}, {"measurement": "Mass, dry, sprout, + % to control", "setting": "[7]", "result": 3, "unit": "%"}, {"measurement": "Mass, wet, root", "setting": "[7]", "result": 6.47, "unit": "g/100 plantlings"}, {"measurement": "Mass, wet, root, + % to control", "setting": "[7]", "result": 1, "unit": "%"}, {"measurement": "Mass, wet, sprout", "setting": "[7]", "result": 5.71, "unit": "g/100 plantlings"}, {"measurement": "Mass, wet, sprout, + % to control", "setting": "[7]", "result": 0.5, "unit": "%"}, {"measurement": "Length, root, + % to control", "setting": "corn, 1·10^−8% solution", "result": 25.5, "unit": "%"}, {"measurement": "Length, sprout, + % to control", "setting": "corn, 1·10^−8% solution", "result": 21, "unit": "%"}, {"measurement": "Mass, dry, root, + % to control", "setting": "corn, 1·10^−8% solution", "result": 31, "unit": "%"}, {"measurement": "Mass, dry, sprout, + % to control", "setting": "corn, 1·10^−8% solution", "result": 31, "unit": "%"}, {"measurement": "Mass, wet, root, + % to control", "setting": "corn, 1·10^−8% solution", "result": 27, "unit": "%"}, {"measurement": "Mass, wet, sprout, + % to control", "setting": "corn, 1·10^−8% solution", "result": 38, "unit": "%"}]}]}
